The experiment addresses T1, human cGAS (residues 161-522) (Homo sapiens, UniProt Q8N884).
T1 construct: human cGAS (residues 161-522); made in house
Briefly: cGAS Activity Assay—Malachite Green. In kind it is biochemical. The note with it: recombinant purified human cGAS 25 nM; 80 μM ATP, 80 μM GTP, 100 nM ISD; 4 hour at RT; phosphate detection by Malachite Green. A digest of the protocol: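 Human cGAS (161-522, 25 nM) in 20 mM TRIS pH 7.5, 5 mM MgCl2, 0.01% BSA with 80 μM ATP, 80 μM GTP and 100 nM ISD DNA, 4 h at RT. Pyrophosphate converted by PPase, phosphate read with Malachite Green at 620 nm; IC50 from 4-parameter fit of 16-point series.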
T1 sequence (Q8N884 161-522): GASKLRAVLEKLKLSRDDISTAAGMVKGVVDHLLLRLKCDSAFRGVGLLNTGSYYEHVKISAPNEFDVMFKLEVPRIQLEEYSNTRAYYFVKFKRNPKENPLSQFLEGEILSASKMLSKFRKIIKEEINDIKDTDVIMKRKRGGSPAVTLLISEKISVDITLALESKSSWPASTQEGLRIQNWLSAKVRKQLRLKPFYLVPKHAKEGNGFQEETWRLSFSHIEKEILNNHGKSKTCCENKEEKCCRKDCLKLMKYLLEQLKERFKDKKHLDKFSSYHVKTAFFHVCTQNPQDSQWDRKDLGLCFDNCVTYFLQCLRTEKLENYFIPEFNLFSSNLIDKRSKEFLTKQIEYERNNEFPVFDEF
Usually IC50 stands for the concentration at which inhibition is half-maximal. As to `Cc1oncc1/C(O)=C(\C#N)C(=O)Nc1ccc(S(=O)(=O)c2ccc(C#N)cc2)cc1` [Example 121, (Z)-2-Cyano-N-(4-((4-cyanophenyl)sulfonyl)phenyl)-3-hydroxy-3-(5-methylisoxazol-4-yl)acrylamide], the IC50 turned out to be 380 nM. For `Cc1oncc1/C(O)=C(\C#N)C(=O)Nc1ccc(S(=O)(=O)Nc2nccs2)cc1` [Example 40, (Z)-2-cyano-3-hydroxy-3-(5-methylisoxazol-4-yl)-N-[4-(thiazol-2-ylsulfamoyl)phenyl]prop-2-enamide], the half-maximal inhibitory concentration (IC50) amounted to 140 nM. As for `Cc1oncc1/C(O)=C(\C#N)C(=O)Nc1ncc(C#Cc2ccccc2)cn1` [Example 86, (Z)-2-cyano-3-hydroxy-3-(5-methylisoxazol-4-yl)-N-(5-(phenylethynyl)pyrimidin-2-yl)acrylamide], the IC50 stood at 480 nM. In the case of `Cc1oncc1/C(O)=C(\C#N)C(=O)Nc1cccc(Oc2ccccc2)c1` [Example 52, (Z)-2-cyano-3-hydroxy-3-(5-methylisoxazol-4-yl)-N-(3-phenoxyphenyl)acrylamide], the IC50 was determined as 1740 nM. With `Cc1oncc1/C(O)=C(\C#N)C(=O)Nc1ncc(S(=O)(=O)c2ccccc2)cn1` [Example 111, (Z)-N-[5-(benzenesulfonyl)pyrimidin-2-yl]-2-cyano-3-hydroxy-3-(5-methylisoxazol-4-yl)prop-2-enamide], the IC50 stood at 20 nM. As to `Cc1oncc1/C(O)=C(\C#N)C(=O)Nc1ccc(S(=O)(=O)N2CCOCC2)cc1` [Example 47, (Z)-2-cyano-3-hydroxy-3-(5-methylisoxazol-4-yl)-N-(4-(morpholinosulfonyl)phenyl)acrylamide], the IC50 is 200 nM. To `CC(=O)Nc1ccc(NC(=O)/C(C#N)=C(\O)c2cnoc2C)cc1` [Example 42, (Z)-N-(4-acetamidophenyl)-2-cyano-3-hydroxy-3-(5-methylisoxazol-4-yl)prop-2-enamide] belongs 270 nM; to `Cc1oncc1/C(O)=C(\C#N)C(=O)Nc1ncc(S(C)(=O)=O)c(-c2cccc(F)c2)n1` [Example 137, (Z)-2-cyano-N-(4-(3-fluorophenyl)-5-(methylsulfonyl)pyrimidin-2-yl)-3-hydroxy-3-(5-methylisoxazol-4-yl)acrylamide], 60 nM; to `CCOc1ccc(NC(=O)/C(C#N)=C(\O)c2cnoc2C)cc1` [Example 28, (Z)-2-cyano-N-(4-ethoxyphenyl)-3-hydroxy-3-(5-methylisoxazol-4-yl)prop-2-enamide], 750 nM. For the compound `COc1ccc(S(=O)(=O)c2ccc(NC(=O)/C(C#N)=C(\O)c3cnoc3C)cc2)cc1` [Example 39, (Z)-2-cyano-3-hydroxy-N-(4-((4-methoxyphenyl)sulfonyl)phenyl)-3-(5-methylisoxazol-4-yl)acrylamide], the IC50 is 490 nM.

On to `Cc1oncc1/C(O)=C(\C#N)C(=O)Nc1ccc(C(F)(F)F)cc1Cl` [Example 56, (Z)-N-(2-chloro-4-(trifluoromethyl)phenyl)-2-cyano-3-hydroxy-3-(5-methylisoxazol-4-yl)acrylamide], for which the IC50 turned out to be 740 nM.

Regarding `COCCOc1cnc(NC(=O)/C(C#N)=C(\O)c2cnoc2C)nc1CCc1ccccc1` [Example 128, (Z)-2-cyano-3-hydroxy-N-(5-(2-methoxyethoxy)-4-phenethylpyrimidin-2-yl)-3-(5-methylisoxazol-4-yl)acrylamide], the IC50 came to 370 nM. In the case of `Cc1oncc1/C(O)=C(\C#N)C(=O)Nc1ccc(S(=O)(=O)c2ccc(Cl)cc2)cc1` [Example 16, (Z)-N-(4-((4-chlorophenyl)sulfonyl)phenyl)-2-cyano-3-hydroxy-3-(5-methylisoxazol-4-yl)acrylamide] it was 270 nM; in that of `Cc1oncc1/C(O)=C(\C#N)C(=O)Nc1ccc(C(=O)Nc2ccccc2)cc1` [Example 67, (Z)-4-(2-cyano-3-hydroxy-3-(5-methylisoxazol-4-yl)acrylamido)-N-phenylbenzamide], 420 nM; in that of `Cc1oncc1/C(O)=C(\C#N)C(=O)Nc1ccc([S+](C)[O-])cc1` (centres unmarked) [Example 116, (Z)-2-cyano-3-hydroxy-3-(5-methylisoxazol-4-yl)-N-(4-methylsulfinylphenyl) prop-2-enamide], 380 nM. Consider `Cc1oncc1/C(O)=C(\C#N)C(=O)Nc1ccc(S(C)(=O)=O)cn1` [Example 91, (Z)-2-cyano-3-hydroxy-3-(5-methylisoxazol-4-yl)-N-(5-(methylsulfonyl)pyridin-2-yl)acrylamide], for which the IC50 was 100 nM.

Regarding `Cc1oncc1/C(O)=C(\C#N)C(=O)Nc1ccc(S(C)(=N)=O)cc1` (centres unmarked) [Example 113, (Z)-2-Cyano-3-hydroxy-3-(5-methylisoxazol-4-yl)-N-(4-(S-methylsulfonimidoyl)phenyl)acrylamide], the concentration for half-maximal inhibition (IC50) stood at 330 nM. As to `Cc1oncc1C(=O)N(c1ccc(C#N)cc1)S(=O)(=O)c1ccc(NC(=O)/C(C#N)=C(\O)c2cnoc2C)cc1` [Example 58, (Z)-N-((4-(2-cyano-3-hydroxy-3-(5-methylisoxazol-4-yl)acrylamido)phenyl)sulfonyl)-N-(4-cyanophenyl)-5-methylisoxazole-4-carboxamide], the IC50 was found to be 330 nM.

As to `Cc1oncc1/C(O)=C(\C#N)C(=O)Nc1cccc(CO)c1` [Example 143, (Z)-2-Cyano-3-hydroxy-N-[3-(hydroxymethyl)phenyl]-3-(5-methylisoxazol-4-yl)prop-2-enamide], the IC50 came out at 960 nM.

`Cc1oncc1/C(O)=C(\C#N)C(=O)Nc1ncc(C2CCCCC2)cn1` [Example 79, (Z)-2-cyano-N-(5-cyclohexylpyrimidin-2-yl)-3-hydroxy-3-(5-methylisoxazol-4-yl)acrylamide]: the IC50 amounted to 190 nM. With `Cc1oncc1/C(O)=C(\C#N)C(=O)Nc1ccc(S(=O)(=O)N2CCCC2)cc1` [Example 27, (Z)-2-cyano-3-hydroxy-3-(5-methylisoxazol-4-yl)-N-(4-(pyrrolidin-1-ylsulfonyl)phenyl) acrylamide], the IC50 is 150 nM.

As for `Cc1oncc1/C(O)=C(\C#N)C(=O)Nc1ccc(Sc2ccccc2)cc1` [Example 55, (Z)-2-cyano-3-hydroxy-3-(5-methylisoxazol-4-yl)-N-(4-(phenylthio)phenyl) acrylamide], the IC50 was 2020 nM. In the case of `CSc1ccc(NC(=O)/C(C#N)=C(\O)c2cnoc2C)cc1` [Example 14, (Z)-2-cyano-3-hydroxy-3-(5-methylisoxazol-4-yl)-N-(4-(methylthio)phenyl) acrylamide], the IC50 was found to be 670 nM. For the compound `COc1cnc(NC(=O)/C(C#N)=C(\O)c2cnoc2C)nc1CCc1ccccc1` [Example 129, (Z)-2-cyano-3-hydroxy-N-(5-methoxy-4-phenethylpyrimidin-2-yl)-3-(5-methylisoxazol-4-yl)acrylamide], the half-inhibitory concentration (IC50) stood at 520 nM.

On to `Cc1oncc1/C(O)=C(\C#N)C(=O)Nc1ccc(C(F)(F)F)c(C#N)c1` [Example 78, (Z)-2-cyano-N-(3-cyano-4-(trifluoromethyl)phenyl)-3-hydroxy-3-(5-methylisoxazol-4-yl)acrylamide], for which the IC50 was found to be 1640 nM.

In the case of `COC(=O)Cc1ccc(NC(=O)/C(C#N)=C(\O)c2cnoc2C)cc1` [Example 32, methyl 2-[4-[[(Z)-2-cyano-3-hydroxy-3-(5-methylisoxazol-4-yl)prop-2-enoyl]amino]phenyl] acetate], the IC50 was determined as 530 nM.

The values are drawn from US20230242494A1, “MALONITRILE DERIVATIVES” (Hoffmann-La Roche Inc., priority 2020, published 2023).
